ChEMBL document CHEMBL5518215, “Unlocking Antibacterial Potential: Key-Site-Based Regulation of Antibacterial Spectrum of Peptides” (J Med Chem, 2024)

Assays:
Escherichia coli [1] = assay: Antimicrobial activity against Escherichia coli 25922 assessed as absence bacterial growth measured after 18 to 24 hrs incubation by NCCLS method; format: functional; conditions: time 18-24 hrs
Escherichia coli [2] = assay: Antimicrobial activity against Escherichia coli K88 assessed as absence bacterial growth measured after 18 to 24 hrs incubation by NCCLS method; format: functional; conditions: time 18-24 hrs
Salmonella typhimurium [3] = assay: Antimicrobial activity against Salmonella typhimurium 14028 assessed as absence bacterial growth measured after 18 to 24 hrs incubation by NCCLS method; format: functional, Salmonella enterica subsp. enterica serovar Typhimurium; conditions: Salmonella enterica, time 18-24 hrs
[4] = Antimicrobial activity against Salmonella pullorum C7913 assessed as absence bacterial growth measured after 18 to 24 hrs incubation by NCCLS method; format: functional, Salmonella enterica subsp. enterica serovar Pullorum; conditions: Salmonella enterica, time 18-24 hrs
Pseudomonas aeruginosa [5] = assay: Antimicrobial activity against Pseudomonas aeruginosa 27853 assessed as absence bacterial growth measured after 18 to 24 hrs incubation by NCCLS method; format: functional; conditions: time 18-24 hrs
Acinetobacter baumannii [6] = assay: Antimicrobial activity against Acinetobacter baumannii 1.6769 assessed as absence bacterial growth measured after 18 to 24 hrs incubation by NCCLS method; format: functional; conditions: time 18-24 hrs
Enterococcus faecalis [7] = assay: Antimicrobial activity against Enterococcus faecalis 29212 assessed as absence bacterial growth measured after 18 to 24 hrs incubation by NCCLS method; format: functional; conditions: time 18-24 hrs
Listeria monocytogenes [8] = assay: Antimicrobial activity against Listeria monocytogenes 1.10753 assessed as absence bacterial growth measured after 18 to 24 hrs incubation by NCCLS method; format: functional; conditions: time 18-24 hrs
Bacillus cereus [9] = assay: Antimicrobial activity against Bacillus cereus 1.932 assessed as absence bacterial growth measured after 18 to 24 hrs incubation by NCCLS method; format: functional; conditions: time 18-24 hrs
Staphylococcus aureus [10] = assay: Antimicrobial activity against Staphylococcus aureus 29213 assessed as absence bacterial growth measured after 18 to 24 hrs incubation by NCCLS method; format: functional; conditions: time 18-24 hrs
Staphylococcus aureus [11] = assay: Antimicrobial activity against Methicillin-resistant Staphylococcus aureus 43300 assessed as absence bacterial growth measured after 18 to 24 hrs incubation by NCCLS method; format: functional; conditions: time 18-24 hrs
[12] = test system: Staphylococcus epidermidis; assay: Antimicrobial activity against Staphylococcus epidermidis 12228 assessed as absence bacterial growth measured after 18 to 24 hrs incubation by NCCLS method; format: functional; conditions: time 18-24 hrs
Staphylococcus aureus [13] = assay: Antimicrobial activity against Staphylococcus aureus 29213 assessed as absence bacterial growth measured after 18 to 24 hrs incubation by NCCLS m; format: functional; conditions: time 18-24 hrs
Escherichia coli [14] = assay: Antimicrobial activity against Escherichia coli 25922 assessed as bacterial killing measured after 16 hrs incubation; format: functional
Escherichia coli [15] = assay: Antimicrobial activity against Escherichia coli K88 assessed as bacterial killing measured after 16 hrs incubation; format: functional
Salmonella typhimurium [16] = assay: Antimicrobial activity against Salmonella typhimurium 14028 assessed as bacterial killing measured after 16 hrs incubation; format: functional, Salmonella enterica subsp. enterica serovar Typhimurium; conditions: Salmonella enterica
Salmonella typhimurium [17] = assay: Antimicrobial activity against Salmonella typhimurium C7731 assessed as bacterial killing measured after 16 hrs incubation; format: functional, Salmonella enterica subsp. enterica serovar Typhimurium; conditions: Salmonella enterica
[18] = Antimicrobial activity against Salmonella pullorum C7913 assessed as bacterial killing measured after 16 hrs incubation; format: functional, Salmonella enterica subsp. enterica serovar Pullorum; conditions: Salmonella enterica
Pseudomonas aeruginosa [19] = assay: Antimicrobial activity against Pseudomonas aeruginosa 27853 assessed as bacterial killing measured after 16 hrs incubation; format: functional
Acinetobacter baumannii [20] = assay: Antimicrobial activity against Acinetobacter baumannii 1.6769 assessed as bacterial killing measured after 16 hrs incubation; format: functional
Enterococcus faecalis [21] = assay: Antimicrobial activity against Enterococcus faecalis 29212 assessed as bacterial killing measured after 16 hrs incubation; format: functional
Listeria monocytogenes [22] = assay: Antimicrobial activity against Listeria monocytogenes 1.10753 assessed as bacterial killing measured after 16 hrs incubation; format: functional
Bacillus cereus [23] = assay: Antimicrobial activity against Bacillus cereus 1.932 assessed as bacterial killing measured after 16 hrs incubation; format: functional
Staphylococcus aureus [24] = assay: Antimicrobial activity against Staphylococcus aureus 29213 assessed as bacterial killing measured after 16 hrs incubation; format: functional
Staphylococcus aureus [25] = assay: Antimicrobial activity against Methicillin-resistant Staphylococcus aureus 43300 assessed as bacterial killing measured after 16 hrs incubation; format: functional
[26] = test system: Staphylococcus epidermidis; assay: Antimicrobial activity against Staphylococcus epidermidis 12228 assessed as bacterial killing measured after 16 hrs incubation; format: functional
Staphylococcus aureus [27] = assay: Antimicrobial activity against Staphylococcus aureus 25923 assessed as bacterial killing measured after 16 hrs incubation; format: functional
Salmonella typhimurium [28] = assay: Antimicrobial activity against Salmonella typhimurium C7731 assessed as absence bacterial growth measured after 18 to 24 hrs incubation by NCCLS method; format: functional, Salmonella enterica subsp. enterica serovar Typhimurium; conditions: Salmonella enterica, time 18-24 hrs
Escherichia coli [29] = assay: Antimicrobial activity against Escherichia coli 25922 assessed as absence bacterial growth measured after 18 to 24 hrs incubation in presence of 50% serum by NCCLS method; format: functional; conditions: time 18-24 hrs
Escherichia coli [30] = assay: Antimicrobial activity against Escherichia coli 25922 assessed as absence bacterial growth measured after 18 to 24 hrs incubation in presence of 25% serum by NCCLS method; format: functional; conditions: time 18-24 hrs
Escherichia coli [31] = assay: Antimicrobial activity against Escherichia coli 25922 assessed as absence bacterial growth measured after 18 to 24 hrs incubation in presence of 12.5% serum by NCCLS method; format: functional; conditions: time 18-24 hrs
[32] = Hemolytic activity in human RBC at effective concentration at 128 uM measured after 1 hr by microplate reader relative to control; format: toxicity, cell-based, Erythrocyte; conditions: human red blood cells (erythrocytes), read-out: Activity
Escherichia coli [33] = assay: Antimicrobial activity against Escherichia coli 25922 assessed as absence bacterial growth measured after 18 to 24 hrs incubation in presence of NaCl by NCCLS method; format: functional; conditions: time 18-24 hrs
Escherichia coli [34] = assay: Antimicrobial activity against Escherichia coli 25922 assessed as absence bacterial growth measured after 18 to 24 hrs incubation in presence of KCl by NCCLS method; format: functional; conditions: time 18-24 hrs
Escherichia coli [35] = assay: Antimicrobial activity against Escherichia coli 25922 assessed as absence bacterial growth measured after 18 to 24 hrs incubation in presence of NH4Cl by NCCLS method; format: functional; conditions: time 18-24 hrs
Escherichia coli [36] = assay: Antimicrobial activity against Escherichia coli 25922 assessed as absence bacterial growth measured after 18 to 24 hrs incubation in presence of MgCl2 by NCCLS method; format: functional; conditions: time 18-24 hrs
Escherichia coli [37] = assay: Antimicrobial activity against Escherichia coli 25922 assessed as absence bacterial growth measured after 18 to 24 hrs incubation in presence of ZnCl2 by NCCLS method; format: functional; conditions: time 18-24 hrs
Escherichia coli [38] = assay: Antimicrobial activity against Escherichia coli 25922 assessed as absence bacterial growth measured after 18 to 24 hrs incubation in presence of FeCl3 by NCCLS method; format: functional; conditions: time 18-24 hrs
Erythrocyte = assay: Hemolytic activity in human RBC at effective concentration measured after 1 hr by microplate reader analysis; format: toxicity, cell-based
[39] = Cytotoxicity against mouse RAW264.7 cells assessed as cell survival rate measured after 8 hrs by MTT assay; format: toxicity, cell-based
[40] = Cytotoxicity against human HEK-293T cells assessed as cell survival rate measured after 8 hrs by MTT assay; format: toxicity, cell-based
[41] = Cytotoxicity against porcine IPEC-J2 cells assessed as cell survival rate measured after 8 hrs by MTT assay; format: toxicity, cell-based, Sus scrofa; conditions: pig

Substance H-AKLWLKGGKLWLKGGKLWLKG-NH2 has an MIC (Escherichia coli [1]) of 4 µM, an MIC (Escherichia coli [2]) of 1 µM and an MIC (Salmonella typhimurium [3]) of 4 µM. For the same substance, the MIC [4] was 2 µM, the MIC (Pseudomonas aeruginosa [5]) was greater than 32 µM and the MIC (Acinetobacter baumannii [6]) was 16 µM. The MIC (Enterococcus faecalis [7]) was greater than 32 µM, the MIC (Listeria monocytogenes [8]) was greater than 32 µM and the MIC (Bacillus cereus [9]) was greater than 32 µM. It also gave an MIC (Staphylococcus aureus [10]) greater than 32 µM, an MIC (Staphylococcus aureus [11]) greater than 32 µM and an MIC [12] greater than 32 µM. For the same substance, the MIC (Staphylococcus aureus [13]) was greater than 32 µM, the MBC (Escherichia coli [14]) was 8 µM and the MBC (Escherichia coli [15]) was 1 µM. For the same substance, the MBC (Salmonella typhimurium [16]) was 16 µM, the MBC (Salmonella typhimurium [17]) was 32 µM and the MBC [18] was 2 µM. The MBC (Pseudomonas aeruginosa [19]) was greater than 32 µM, the MBC (Acinetobacter baumannii [20]) was 16 µM and the MBC (Enterococcus faecalis [21]) was greater than 32 µM. For the same substance, the MBC (Listeria monocytogenes [22]) was greater than 32 µM, the MBC (Bacillus cereus [23]) was greater than 32 µM and the MBC (Staphylococcus aureus [24]) was greater than 32 µM. The MBC (Staphylococcus aureus [25]) was greater than 32 µM, the MBC [26] was greater than 32 µM and the MBC (Staphylococcus aureus [27]) was greater than 32 µM. The MIC (Salmonella typhimurium [28]) was 16 µM, the MIC (Escherichia coli [29]) was greater than 32 µM and the MIC (Escherichia coli [30]) was greater than 32 µM. It also gave an MIC (Escherichia coli [31]) greater than 32 µM, a hemolysis at 1 h, 128 µM [32] of less than 10% and an MIC (Escherichia coli [33]) greater than 32 µM. The MIC (Escherichia coli [34]) was 4 µM, the MIC (Escherichia coli [35]) was 4 µM and the MIC (Escherichia coli [36]) was 16 µM. The MIC (Escherichia coli [37]) was 4 µM, the MIC (Escherichia coli [38]) was 4 µM and the HC10 (Erythrocyte) was greater than 128 µM. The IC50 at 8 h [39] was greater than 64 µM, the IC50 at 8 h [40] was greater than 64 µM and the IC50 at 8 h [41] was greater than 64 µM.

H-MKLWLKGGKLWLKGGKLWLKG-NH2 gave an MIC (Escherichia coli [1]) of 4 µM, an MIC (Escherichia coli [2]) of 1 µM and an MIC (Salmonella typhimurium [3]) of 16 µM. For the same substance, the MIC [4] was 2 µM, the MIC (Pseudomonas aeruginosa [5]) was greater than 32 µM and the MIC (Acinetobacter baumannii [6]) was 8 µM. For the same substance, the MIC (Enterococcus faecalis [7]) was greater than 32 µM, the MIC (Listeria monocytogenes [8]) was greater than 32 µM and the MIC (Bacillus cereus [9]) was greater than 32 µM. The MIC (Staphylococcus aureus [10]) was greater than 32 µM, the MIC (Staphylococcus aureus [11]) was greater than 32 µM and the MIC [12] was greater than 32 µM. The MIC (Staphylococcus aureus [13]) was greater than 32 µM, the MBC (Escherichia coli [14]) was 4 µM and the MBC (Escherichia coli [15]) was 2 µM. The MBC (Salmonella typhimurium [16]) was 16 µM, the MBC (Salmonella typhimurium [17]) was 32 µM and the MBC [18] was 2 µM. For the same substance, the MBC (Pseudomonas aeruginosa [19]) was greater than 32 µM, the MBC (Acinetobacter baumannii [20]) was 16 µM and the MBC (Enterococcus faecalis [21]) was greater than 32 µM. The MBC (Listeria monocytogenes [22]) was greater than 32 µM, the MBC (Bacillus cereus [23]) was greater than 32 µM and the MBC (Staphylococcus aureus [24]) was greater than 32 µM. It also gave an MBC (Staphylococcus aureus [25]) greater than 32 µM, an MBC [26] greater than 32 µM and an MBC (Staphylococcus aureus [27]) greater than 32 µM. For the same substance, the MIC (Salmonella typhimurium [28]) was 8 µM, the MIC (Escherichia coli [29]) was greater than 32 µM and the MIC (Escherichia coli [30]) was 32 µM. The MIC (Escherichia coli [31]) was 32 µM, the hemolysis at 1 h, 128 µM [32] was less than 10% and the MIC (Escherichia coli [33]) was 16 µM. For the same substance, the MIC (Escherichia coli [34]) was 4 µM, the MIC (Escherichia coli [35]) was 4 µM and the MIC (Escherichia coli [36]) was greater than 32 µM. It also gave an MIC (Escherichia coli [37]) of 4 µM, an MIC (Escherichia coli [38]) of 4 µM and an HC10 (Erythrocyte) of 128 µM. For the same substance, the IC50 at 8 h [39] was greater than 64 µM, the IC50 at 8 h [40] was greater than 64 µM and the IC50 at 8 h [41] was 41 µM.
